Where a name gives a salt, the structure may show the parent alone. Read-outs that look alike come from different tables or passages of the source.
Tests used:
[1] = test system: effects of serotonin in the gastric lesion test; settings: rats injected with compound 48/80; known serotonin-antagonists; cited from earlier work
[2] = test system: effects of serotonin in the gastric lesion test; experiment: Antagonistic activity on the effects of serotonin in the gastric lesion test (lesions induced by compound 48/80); format: in vivo, rat (male, Wistar inbred strain)
Text: The compounds of formula (I) and the pharmaceutically acceptable acid addition salts thereof are also potent serotonin-antagonists. The potency of the subject compounds as serotonin-antagonists is clearly evidenced by the results obtained in the following tests wherein the antagonistic activity of the subject compounds on the effect of serotonin is examined.
Antagonistic activity on the effects of serotonin in the gastric lesion test.
The shock, followed by dead, can be avoided if the rats are pretreated with a classical H 1 antagonist.
Male rats of a Wistar inbred strain, weighing 220-250 g, were starved overnight, water being available ad libitum. The test compounds were administered orally as a solution or as a suspension in aqueous medium. A control rat and a "blank" rat received the test compound. One hour later 5-[4-(diphenylmethyl)-1-piperazinylmethyl]-1-methyl-1H-benzimidazole-2-methanol was administered subcutaneously to all rats at the dose of 2.5 mg/kg.
Four hours after the intravenous injection of compound 48/80, the rats were decapitated and the stomachs were removed. Subsequently the stomachs were inspected for distension and contents (blood, fluid, food) and thoroughly rinsed. The macroscopic lesions were scored from 0 to +++, 0 corresponding to the complete absence of visible lesions and the highest score corresponding to reddish rough patches covering more than half the glandular area.

[3] = test system: compound 48/80-induced lethality; experiment: Protection of rats from compound 48/80-induced lethality; format: in vivo, rat (male, inbred Wistar strain); settings: subcutaneous or oral, 1 h before compound 48/80 0.5 mg/kg i.v., survival after 4 h; for ED50: Rattus norvegicus, 4 h, read-out: compound 48/80 lethality test in rats-ED50, dose protecting 50% of animals
Procedure: Protection of rats from compound 48/80-induced lethality.
The protection from compound 48/80-induced lethal circulatory collapse appears to be a simple way of evaluating quantitatively the antihistaminic activity of test compounds. Male rats of an inbred Wistar strain, weighing 240-260 g were used in the experiment. After overnight starvation the rats were transferred to conditioned laboratories (temp.=21±1° C., relative humidity=65±5%).
The rats were treated subcutaneously or orally with a test compound or with the solvent (NaCl solution, 0.9%). […] Survival after 4 hours is therefore considered to be a safe criterion of a protective effect of drug administration.
The ED50 -values of the compounds of formula (I) are listed in the first column of table 1. Said ED50 -values are the values in mg/kg body weight at which the tested compounds protect 50% of the tested animals against compound 48/80-induced lethality.

[4] = Rattus norvegicus, read-out: gastric lesion test ED50
[5] = Rattus norvegicus; read-out: gastric lesion test ED50

Structure (SMILES) | ED50 [3] | ED50 [2, 5] | also measured
CC[C@@H](CO)NC(=O)[C@@H]1C=C2c3cccc4c3c(cn4C)C[C@H]2N(C)C1 [methysergide] | – | – | prevention of cyanosis of ears and extremities, lesions in the glandular area of the stomach and abnormal gastric distension [1]: prevent completely
NC(=O)C1(N2CCCCC2)CCN(CCCC(=O)c2ccc(F)cc2)CC1 [pipamperone] | – | – | prevention of cyanosis of ears and extremities, lesions in the glandular area of the stomach and abnormal gastric distension [1]: prevent completely
Cc1sc(N)nc1CCN1CCC(Nc2nc3ccccc3n2Cc2ccc(F)cc2)CC1 [Compound 94, N-[1-[2-(2-amino-5-methyl-4-thiazolyl)ethyl]-4-piperidinyl]-1-[(4-fluorophenyl)methyl]-1H-benzimidazol-2-amine] | 0.08 mg/kg | – | ED50 [2, 4]: 0.08 mg/kg
O=C(CCCN1CCC2(CC1)C(=O)NCN2c1ccccc1)c1ccc(F)cc1 [spiperone] | – | – | prevention of cyanosis of ears and extremities, lesions in the glandular area of the stomach and abnormal gastric distension [1]: prevent completely
Fc1ccc(Cn2c(NC3CCN(CCNc4nc(-c5ccccn5)cs4)CC3)nc3ccccc32)cc1 [Compound 87] | 0.31 mg/kg | 0.63 mg/kg | –
CC(=O)N(CCN1CCC(Nc2nc3ccccc3n2Cc2ccc(F)cc2)CC1)c1nccs1 [Compound 102, N-[2-[4-[[1-[(4-fluorophenyl)methyl]-1H-benzimidazol-2-yl]-amino]-1-piperidinyl]ethyl]-N-(2-thiazolyl)acetamide] | 0.16 mg/kg | 1.25 mg/kg | –
Cc1nc[nH]c1CN1CCC(Nc2nc3ccccc3n2Cc2ccc(F)cc2)CC1 [Compound 7, 1-(4-fluorophenylmethyl)-N-[1-[(4-methyl-1H-imidazol-5-yl)methyl]-4-piperidinyl]-1H-benzimidazol-2-amine] | 0.02 mg/kg | 0.31 mg/kg | –
CN1CCC(=C2c3ccccc3C=Cc3ccccc32)CC1 [cyproheptadine] | – | – | prevention of cyanosis of ears and extremities, lesions in the glandular area of the stomach and abnormal gastric distension [1]: prevent completely
Fc1ccc(Cn2c(NC3CCN(C4CCN(c5nccs5)CC4)CC3)nc3ccccc32)cc1 [Compound 52] | 1.25 mg/kg | 0.63 mg/kg | –
CN1C[C@H](CNC(=O)OCc2ccccc2)C[C@@H]2c3cccc4c3c(cn4C)C[C@H]21 [metergoline] | – | – | prevention of cyanosis of ears and extremities, lesions in the glandular area of the stomach and abnormal gastric distension [1]: prevent completely
c1coc(Cn2c(NC3CCN(CCNc4nccs4)CC3)nc3ccccc32)c1 [Compound 48, 1-(2-furanylmethyl)-N-[1-[2-(2-thiazolylamino)ethyl]-4-piperidinyl]-1H-benzimidazol-2-amine] | 0.08 mg/kg | 0.63 mg/kg | –
CNC(=O)N(CCN1CCC(Nc2nc3ccccc3n2Cc2ccc(F)cc2)CC1)c1nccs1 [Compound 103, N-[2-[4-[[1-[(4-fluorophenyl)methyl]-1H-benzimidazol-2-yl]amino]-1-piperidinyl]ethyl]-N'-methyl-N-(2-thiazolyl)urea] | 0.08 mg/kg | 0.63 mg/kg | –
CN(C)CCCSc1ccccc1NC(=O)/C=C/c1ccccc1 [cinanserin] | – | – | prevention of cyanosis of ears and extremities, lesions in the glandular area of the stomach and abnormal gastric distension [1]: prevent completely
Fc1ccc(Cn2c(NC3CCN(CCOc4nccs4)CC3)nc3ccccc32)cc1 [Compound 72, 1-[(4-fluorophenyl)methyl]-N-[1-[2-(2-thiazolyloxy)ethyl]-4-piperidinyl]-1H-benzimidazol-2-amine] | 0.08 mg/kg | 0.63 mg/kg | –
Cc1nnc(NCCN2CCC(Nc3nc4ccccc4n3Cc3ccc(F)cc3)CC2)s1 [Compound 15, 1-[(4-fluorophenyl)methyl]-N-[1-[2-[(5-methyl-1,3,4-thiadiazol-2-yl)amino]ethyl]-4-piperidinyl]-1H-benzimidazol-2-amine] | 0.04 mg/kg | 0.31 mg/kg | –
CNc1nc(CCN2CCC(Nc3nc4ccccc4n3Cc3ccc(F)cc3)CC2)cs1 [Compound 98, 1-[(4-fluorophenyl)methyl]-N-[1-[2-[2-(methylamino)-4-thiazolyl]-ethyl]-4-piperidinyl]-1H-benzimidazol-2-amine] | 0.16 mg/kg | 0.16 mg/kg | –

Structure (SMILES) | ED50 [3] | ED50 [2, 5] | also measured
Fc1ccc(Cn2c(NC3CCN(CCNc4nccs4)CC3)nc3ccccc32)cc1 [Compound 58] | – | – | ED50 [2, 4]: 0.04 mg/kg; compound 48/80 lethality test in rats-ED50 ([3]; dose protecting 50% of animals, 0.5 mg/kg, 240 min): 0.02 mg/kg body weight
Fc1ccc(Cn2c(NC3CCN(CCNc4nccs4)CC3)nc3cccnc32)cc1 [Compound 17] | 0.02 mg/kg | 0.16 mg/kg | –
Cc1coc(NCCN2CCC(Nc3nc4ccccc4n3Cc3ccc(F)cc3)CC2)n1 [Compound 84, 1-[(4-fluorophenyl)methyl]-N-[1-[2-[(4-methyl-2-oxazolyl)amino]ethyl]-4-piperidinyl]-1H-benzimidazol-2-amine] | 0.16 mg/kg | 0.63 mg/kg | –
c1csc(Cn2c(NC3CCN(CCNc4nccs4)CC3)nc3ccccc32)c1 [Compound 28] | 0.08 mg/kg | 0.02 mg/kg | –
N=C(N)Nc1nc(CCN2CCC(Nc3nc4ccccc4n3Cc3ccc(F)cc3)CC2)cs1 [Compound 90, N-[4-[2-[4-[[1-[(4-fluorophenyl)methyl]-1H-benzimidazol-2-yl]amino]-1-piperidinyl]ethyl-2-thiazolyl]guanidinetrihydrobromide] | 0.04 mg/kg | 0.31 mg/kg | –
Cc1ccc(Cn2c(NC3CCN(CCNc4nccs4)CC3)nc3ccccc32)cc1 [Compound 62] | 0.16 mg/kg | 0.63 mg/kg | –
c1ccc2c(c1)nc(NC1CCN(CCNc3nccs3)CC1)n2Cc1cscn1 [Compound 49, N-[1-[2-(2-thiazolylamino)ethyl]-4-piperidinyl]-1-(4-thiazolylmethyl)-1H-benzimidazol-2-amine ethanedioate (2:5)] | 0.04 mg/kg | 0.63 mg/kg | –
CN1CCN2c3ccccc3Cc3ccccc3C2C1 (stereo not drawn) [mianserin] | – | – | prevention of cyanosis of ears and extremities, lesions in the glandular area of the stomach and abnormal gastric distension [1]: prevent completely
Fc1ccc(Cn2c(NC3CCN(CCNc4nc(-c5ccncc5)cs4)CC3)nc3ccccc32)cc1 [Compound 86] | 0.31 mg/kg | 1.25 mg/kg | –
Cc1ccccc1Cn1c(NC2CCN(CCNc3nccs3)CC2)nc2ccccc21 [Compound 29] | 0.63 mg/kg | 0.63 mg/kg | –
Fc1ccc(Cn2c(NC3CCN(CCCCCNc4nccs4)CC3)nc3ccccc32)cc1 [Compound 21] | 0.16 mg/kg | 0.31 mg/kg | –
Clc1ccc(Cn2c(NC3CCN(CCNc4nccs4)CC3)nc3ccccc32)cc1 [Compound 25] | 0.31 mg/kg | 0.63 mg/kg | –
CN1CCC(=C2c3ccccc3CCc3sccc32)CC1 [pizotifen] | – | – | prevention of cyanosis of ears and extremities, lesions in the glandular area of the stomach and abnormal gastric distension [1]: prevent completely
Nc1nnc(NCCN2CCC(Nc3nc4ccccc4n3Cc3ccc(F)cc3)CC2)s1 [Compound 18] | 0.02 mg/kg | – | ED50 [2, 4]: 0.04 mg/kg
Fc1ccc(Cn2c(NC3CCN(CCNc4ncc[nH]4)CC3)nc3ccccc32)cc1 [Compound 79, 1-[(4-fluorophenyl)methyl]-N-[1-[2-(1H-imidazol-2-ylamino)ethyl]-4-piperidinyl]-1H-benzimidazol-2-amine] | 0.02 mg/kg | – | ED50 [2, 4]: 0.04 mg/kg
